Reference: patent publication US6787527B1, “Methods of preventing and treating HIV infection” (Duke University, priority 1994, dated 2004)

Key:
HIV-1-BaL [1] = assay: HIV-1 infection of monocytes / mononuclear phagocytes (Mo, Mac), supernatant medium RT activity; type: cell-based; conditions: for inhibition of productive HIV-1 infection: Mo, Mac, added at viral inoculation and left in throughout culture
Method: (§1) Monocytes and lymphocytes were isolated and cultured as previously described (J. Exp. Med. 174:1477 (1991)). Briefly, monocytes were isolated by sequential ficoll-sodium diazotrate and Percoll gradients with subsequent adherence to cultureware plastic, and then cultured in Dulbecco's modified Eagle medium (GIBCO, Grand Islands, N.Y.) with 10% unheated human serum. Lymphocytes were from ficoll-sodium diazotrate gradients, and were cultured with anti-CD3/anti-CD28 antibody and subsequently IL-2. Reverse transcription (RT) was measured as described (Weinberg et al, J. Exp. Med. 174:1477 (1991)) using a phosphoimager device for quantification. Leukemia cell lines Jurkat, CEM, HL-60, and U937 were obtained from American Type Culture Collection (Rockville, Md.). The cells were cultured in RPMI-1640 with 10% fetal bovine serum (Hyclone, Logan, Utah). Cobalamins were obtained from Sigma Chemical Company (St. Louis, Mo.). The cobalamins had extremely low endotoxin content, as determined by Limulus amebocyte lysate testing (Whitaker Bioproducts, Walkerville, Md.). When tested as a 3 mM solution, the cobalamins had less than 0.25 EU/ml. Cobalamins were not toxic for Mo, Mac, Lym, and leukemia cell line cells, as determined by morphology under phase microscopy, Wright staining of methanol-fixed cells, trypan blue exclusion, and thymidine incorporation were carried out in accordance with standard techniques.
Monocytes were inoculated at time zero with HIV-1-Bal (Weinberg et al, J. Exp. Med. 174:1477 (1991)) (MOI ˜0.1)and cultured with the designated cobalamin for 7-14 days. Supernatant medium RT was then measured (Weinberg et al, J. Exp. Med. 174:1477 (1991)). Results are provided as RT activity (mean±SEM of triplicates)and are derived from one experiment.

HIV-1-IIIB [2] = assay: HIV-1 infection of PBL, supernatant medium RT activity; type: cell-based; conditions: added at viral inoculation and left in throughout culture
Method: as §1
(§2) PBL were inoculated with HIV-1-IIIB (MOI ˜0.1) and cultured with the designated cobalamin for 15-25 days. Supernatant medium RT was then measured. Results are provided as RT activity (mean±SEM of triplicates) and are derived from one experiment.

HIV-1-IIIB [3] = assay: HIV-1 infection of leukemia cell lines Jurkat, CEM, HL-60, U937, supernatant medium RT activity; type: cell-based; conditions: HL-60, U937 cell lines
Method: as §1
as §2, with “Cells of the T lymphoblast cell line Jurkat and CEM, the myeloblast cell line HL-60, and the monoblast cell line U937” for “PBL”, “cultured for” for “cultured”, “10-20” for “15-25”

[4] = molecular target: T1, recombinant CD4 with gp120 from HIV-1-IIIB (UniProt P01730+P04578); assay: CD4-gp120 binding, gp120 from HIV-1-IIIB
T1 construct: gp120 from HIV-1-IIIB
Method: (§3) Cobalamins were incubated with CD4 and gp120 from HIV-1-IIIB in wells of microtiter wells, and binding was assessed as previously described. […] Serum from an HIV-1-infected person containing anti-gp120 antibody served as the “positive control”.
(§4) To determine whether cobalamins modified the binding of HIV-1 gp120 to CD4, the abilities of CN-Cbl, OH-Cbl, Me-Cbl, and Ado-Cbl to inhibit binding of recombinant CD4 with gp120 from HIV-1-IIIB or HIV-1-MN were tested (FIG. 2). No inhibition of binding was observed.

[5] = molecular target: T2, recombinant CD4 with gp120 from HIV-1-MN (UniProt P01730+P05877); assay: CD4-gp120 binding, gp120 from HIV-1-MN
T2 construct: recombinant CD4 with gp120 from HIV-1-IIIB or HIV-1-MN
Method: as §3, §4

RT = molecular target: T3, RT (Human immunodeficiency virus type 1 group M subtype B, UniProt P04585); assay: RT activity in cell-free medium; type: biochemical, HIV-1; conditions: 1 to 1000 μM added to cell-free medium containing RT
T3 construct: added to cell-free medium containing RT

[6] = test system: Mo, Mac, PBL, human leukemia cell lines Jurkat, CEM, HL-60, U937; assay: Toxicity for cells (morphology, Wright staining, trypan blue exclusion, thymidine incorporation); type: cell-based; conditions: concentrations ≦600 μM
Method: as §1, with “When tested as a 3 mM solution, the cobalamins had less than 0.25 EU/ml.” left out

HIV-1-BaL [7] = assay: Syncytium (multinucleated giant cell) formation in HIV-1-inoculated monocytes; type: cell-based; conditions: 67 μM, HIV-1-BaL MOI ~0.1, 14 days
Method: OH-Cbl, Me-Cbl, Ado-Cbl, and CN-Cbl were not toxic for Mo, Mac, PBL, or cells of the human leukemia cell lines Jurkat, CEM, HL-60, or U937 at concentrations ≦600 μM. When added to the cultures of Mo, Mac, or PBL at the time of viral inoculation on day zero and left in throughout the culture period, there was potent inhibition of productive infection as judged by supernatant medium RT activity (see FIG. 1). Further evidence of the cobalamin inhibitory effect was derived from studies examining syncytium formation. Populations of monocytes not inoculated with virus were generally mononuclear, while those inoculated with HIV-1-BaL (MOI ˜0.1) cultured (14 days) without OH-Cbl (67 μM) had numerous multinucleated giant cells (syncytium).

[8] = test system: U1 cells and OM-10.1 cells (HIV-1 integrated provirus); assay: TNF- or PMA-induced viral RT expression in latently-infected leukemia cells; type: cell-based, human; conditions: 250 μM; 500 U/ml TNF or 80 nM PMA; U1 and OM-10.1 cells
Method: To determine whether OH-Cbl would inhibit the ability of latently-infected leukemia cells to produce RT after stimulation with tumor necrosis factor (TNF) or phorbol myristate acetate (PMA), U1 (U937 monoblastic cell line with HIV-1 integrated provirus) cells (NIH AIDS Repository) and OM-10.1 cells (HL-60 myelobastic cell line with HIV-1 integrated provirus) (Dr. Clay Smith, Duke University, Durham, N.C.) were treated with 500 U/ml TNF or 80 nM PMA (with or without 250 μM OH-Cbl).

[9] = humans, 5 to 7 grams by bolus intravenous infusion; cited from earlier work

Question: With `C/C1=C2/[N-][C@H]([C@H](CC(N)=O)[C@@]2(C)CCC(=O)NC[C@@H](C)OP(=O)([O-])O[C@H]2[C@@H](O)[C@@H](n3cnc4cc(C)c(C)cc43)O[C@@H]2CO)[C@]2(C)N=C(/C(C)=C3N=C(/C=C4N=C1[C@@H](CCC(N)=O)C\4(C)C)[C@@H](CCC(N)=O)[C@]\3(C)CC(N)=O)[C@@H](CCC(N)=O)[C@]2(C)CC(N)=O.[CH3-].[Co]` [Me-Cbl] as the compound, how does the “inhibition of productive HIV-1 infection” value (HIV-1-BaL [1]) read?
Answer: inhibited

Question: And the “inhibition of productive HIV-1 infection” value (HIV-1-IIIB [2])?
Answer: inhibited

Question: What about the “inhibition of HIV-1 infection” value (HIV-1-IIIB [3]) of the same compound?
Answer: did not inhibit

Question: What about the “inhibition of CD4-gp120 binding” value [4] of the same compound?
Answer: No inhibition

Question: And the “inhibition of CD4-gp120 binding” value [5]?
Answer: No inhibition

Question: And the “inhibition of RT activity” value (RT)?
Answer: inhibition of RT activity was not observed

Question: Which results are given for `C/C1=C2/[N-]C([C@H](CC(N)=O)[C@@]2(C)CCC(=O)NC[C@@H](C)OP(=O)([O-])O[C@H]2[C@@H](O)[C@@H](n3cnc4cc(C)c(C)cc43)O[C@@H]2CO)[C@]2(C)N=C(/C(C)=C3N=C(/C=C4N=C1[C@@H](CCC(N)=O)C\4(C)C)[C@@H](CCC(N)=O)[C@]\3(C)CC(N)=O)[C@@H](CCC(N)=O)[C@]2(C)CC(N)=O.[CH2-][C@H]1O[C@@H](n2cnc3c(N)ncnc32)[C@@H](O)[C@@H]1O.[Co+3]` [Ado-Cbl, adencobalamin]?
Answer: inhibition of productive HIV-1 infection (HIV-1-BaL [1]): inhibited; inhibition of productive HIV-1 infection (HIV-1-IIIB [2]): inhibited; inhibition of HIV-1 infection (HIV-1-IIIB [3]): did not inhibit; inhibition of CD4-gp120 binding [4]: No inhibition; inhibition of CD4-gp120 binding [5]: No inhibition; inhibition of RT activity (RT): inhibition of RT activity was not observed

Question: What does the source list for `C/C1=C2/[N-][C@H]([C@H](CC(N)=O)[C@@]2(C)CCC(=O)NC[C@@H](C)OP(=O)([O-])O[C@H]2[C@@H](O)[C@@H](n3cnc4cc(C)c(C)cc43)O[C@@H]2CO)[C@]2(C)N=C(/C(C)=C3N=C(/C=C4N=C1[C@@H](CCC(N)=O)C\4(C)C)[C@@H](CCC(N)=O)[C@]\3(C)CC(N)=O)[C@@H](CCC(N)=O)[C@]2(C)CC(N)=O.[Co+3].[OH-]` [OH-Cbl, hydroxocobalamin]?
Answer: inhibition of HIV-1 infection (HIV-1-BaL [1]; Mo incubated simultaneously with 250 μM and HIV-1 for 4 hours, washed, cultured 10 days): no inhibition; inhibition of subsequent RT production (HIV-1-BaL [1]; Mo inoculated and cultured 6 days, washed, then cultured with 250 μM): no inhibition; inhibition of RT (HIV-1-BaL [1]; Mo pretreated with 250 μM for 24 hours, washed, then inoculated with HIV-1-BaL): approximately 80%; inhibition of productive HIV-1 infection (HIV-1-BaL [1]): inhibited; inhibition of productive HIV-1 infection (HIV-1-IIIB [2]): inhibited; inhibition of HIV-1 infection (HIV-1-IIIB [3]): did not inhibit; toxicity for cells [6]: not toxic; inhibition of syncytium formation (HIV-1-BaL [7]): 100%; inhibition of expression of induced viral RT [8]: did not inhibit; inhibition of CD4-gp120 binding [4]: No inhibition; inhibition of CD4-gp120 binding [5]: No inhibition; inhibition of RT activity (RT): inhibition of RT activity was not observed; resultant serum levels [9]: μM to mM; side effects [9]: minimal

Question: What does the source list for cyanocobalamin [CN-Cbl]?
Answer: inhibition of productive HIV-1 infection (HIV-1-BaL [1]): little or no inhibitory activity; inhibitory effect in vitro (HIV-1-BaL [1]; in vitro, summary statement): little or no inhibitory effect; inhibition of productive HIV-1 infection (HIV-1-IIIB [2]): little or no inhibitory activity; inhibition of CD4-gp120 binding [4]: No inhibition; inhibition of CD4-gp120 binding [5]: No inhibition; inhibition of RT activity (RT): inhibition of RT activity was not observed
